Reference: the METLIN SMRT retention time set (Domingo-Almenara et al. 2019)

Experiment: gradient 5% acetonitrile 3 min, to 50% in 2 min, to 85% in 15 min, held 3 min, 100 µL/min
Details: column: Zorbax Extend-C18 2.1 x 50 mm; eluents: water / acetonitrile, 0.1% formic acid
Summary of the method: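 In both positive and negative ionization mode, a quadrupole time-of-flight mass spectrometer coupled to HPLC analyzed pure standards run in mixtures of ~100 molecules. The Zorbax Extend-C18 column (2.1 × 50 mm, 1.8 μm) was operated at 100 μL/min with water and acetonitrile, each containing 0.1% formic acid. The dead volume was 40 μL and the dwell volume 900 μL. Retention time came from adduct peaks that were computationally picked and individually inspected by hand.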

Row | RP-LC retention time [s] | Compound
1 | 657 | CC(C)NC(=O)C1CC(=O)N(c2ccc3c(c2)CCN3C(=O)C2CC2)C1 (centres undefined)
2 | 950 | COc1ccc(-c2noc(C3CC(=O)N(c4ccc(Cl)cc4)C3)n2)cc1OC (centres undefined)
3 | 854 | COCCCNC(=O)C1CCN(C(=O)c2ccc(-n3c(C)cc4ccccc43)s2)CC1
4 | 875 | S=C(NCc1ccc2c(c1)OCO2)N1CCN(c2ncnc3c2oc2ccccc23)CC1
5 | 713 | COc1cc(NC(=O)N2CCc3cn(C)c4cccc(c34)C2)cc(OC)c1
6 | 993 | CC(C)n1cc(C2=CCN(S(=O)(=O)c3cccc4cccnc34)CC2)c2cccnc21
7 | 979 | CC(C)Cn1ccc2c(cc(C(=O)Nc3ccc(Br)cc3)n2C)c1=O
8 | 1080 | O=C(OCC12CC3CC(CC(C3)C1)C2)c1ccc(NCc2cc(O)ccc2O)cc1
9 | 595 | Cc1cnc(C2CN(C(=O)c3ccsc3)C2)n1CC1CC1
10 | 880 | Cc1c(Cl)cccc1NC(=O)Cn1c(=O)n(-c2ccc(F)cc2)c(=O)c2c1cc(C)n2C
11 | 745 | CCOC(=O)C1CCN(C(=O)C(C)N2C(=O)C3CCCCN3C(=O)c3ccccc32)CC1 (centres undefined)
12 | 674 | CCc1ccc(S(=O)(=O)Nc2ccc3c(c2)nc(-c2ccc(C(=O)NC)cc2)n3C)cc1
13 | 649 | Cc1ccn2cc(-c3ccc(NS(=O)(=O)c4ccc(F)cc4)cc3)nc2n1
14 | 816 | CC(C)NC(=O)c1cc(N(C)C)nc2c(Cl)cccc12
15 | 680 | CCCn1c(CCc2ccccc2NS(=O)(=O)c2cnn(CC)c2)nc2ccccc21
16 | 691 | O=C(NC1CCCCC1)C1CCCN(c2cnc3nccnc3c2)C1 (centres undefined)
17 | 815 | O=C(NC1CCCCCC1)C1CCCN(c2ncnc3c2oc2ccccc23)C1 (centres undefined)
18 | 752 | COCCNC(=O)c1ccc2c(c1)CCCN2C(=O)c1ccc(Cl)cc1
19 | 645 | O=C1CN(C(=O)c2ccccc2F)c2ccccc2N1
20 | 865 | COC(=O)c1cc(S(=O)(=O)N2CCCC2C(=O)NCc2ccc(Cl)cc2)cn1C (centres undefined)
21 | 611 | Cc1ccc(NC(=O)c2ccc(=O)n(CCN3CCOCC3)c2)cc1
22 | 594 | CCCCNC(=O)C1CCCN(c2nnc3c(Cl)cccn23)C1 (centres undefined)

Row | RP-LC retention time [s] | Compound
23 | 867 | COC(=O)c1c(C)[nH]c(C(=O)N2CCC(CC(=O)NCCCc3ccccc3)CC2)c1C
24 | 561 | CCC(=O)NCc1nc2c(n1CC)CN(S(=O)(=O)c1ccccc1F)CC2
25 | 1210 | CCc1sc(NC(=O)CCSc2ccccc2)nc1-c1ccccc1
26 | 932 | CN(C)S(=O)(=O)c1ccc2c(c1)N(CC(=O)NCc1ccc(Cl)cc1)C(=O)C1CCCCN21 (centres undefined)
27 | 595 | COc1ccc(NC(=O)Cn2nc3n(c2=O)CCCC3)cc1OC
28 | 896 | COc1ccc(OC)c2sc(N3CCN(S(=O)(=O)c4cccs4)CC3)nc12
29 | 744 | CCCNC(=O)C1CCCN(c2ccc(SCC(=O)Nc3cccc(C(F)(F)F)c3)nn2)C1 (centres undefined)
30 | 1330 | CC(C)(C)c1noc(-c2ccc(-n3cnc(C(=O)NCc4ccc(F)cc4)c3)nc2)n1
31 | 745 | CCNC(=O)c1nc2cc(C)c(C)cc2n(CC)c1=O
32 | 667 | O=C(Nc1ccc2c(c1)OCCO2)C1CCN(c2cc(N3CCCCC3)ncn2)CC1
33 | 974 | COc1ccc(OC)c(-c2ccc(=O)n(CCc3nc(-c4cccc(F)c4)no3)n2)c1
34 | 710 | O=C(CNC(=O)c1c[nH]c2ccccc12)NCCC1=CCCCC1
35 | 698 | CCc1ccccc1NC(=O)C1CC(=O)N(c2ccc3c(c2)CCN3C(C)=O)C1 (centres undefined)
36 | 992 | Cc1cc(C)cc(OCCNC(=O)Nc2cc(F)ccc2F)c1
37 | 604 | CC(C)N1CCN(Cc2ccc(C(=O)NC3CC3)cc2)C(=O)C1=O
38 | 638 | Cc1c(C(=O)O)nnn1-c1ccc2c(c1)OCCO2
39 | 1060 | CCn1ccc2cc(S(=O)(=O)N3CCCC(C(=O)NCc4ccc(OC(C)C)cc4)C3)ccc21 (centres undefined)
40 | 731 | COc1ccc(NS(=O)(=O)c2cc(-c3[nH]ncc3C(=O)N3CCCCC3)oc2C)cc1
41 | 913 | COCCN1CCCc2ccc(NC(=O)c3ccc(Br)o3)cc21
42 | 984 | CCn1cc2c3c(cccc31)CN(C(=O)Nc1ccc(SC)cc1)CC2
43 | 661 | CS(=O)(=O)Nc1ccc2nc(S(C)(=O)=O)sc2c1
44 | 580 | CN(C)c1ccc(CNC(=O)C2CCN(S(=O)(=O)c3ccc4[nH]c(=O)ccc4c3)CC2)cc1

Row | RP-LC retention time [s] | Compound
45 | 850 | COC(=O)C1CN(c2ccc(OC)cc2)N=C1C(C)=O (centres undefined)
46 | 858 | COc1ccc(NC(=O)c2cnc3c(c2)c(=O)n(C)c(=O)n3-c2ccccc2)cc1F
47 | 580 | O=C(c1ccc2nc(-c3ccccc3)cn2c1)N1CCOCC1
48 | 637 | c1cc(N2CCCCC2)ncc1-c1noc(CN2CCC3(CC2)OCCO3)n1
49 | 902 | O=C(c1nnc(-c2ccc(S(=O)(=O)N3CCCC3)cc2)o1)N1CCCCCC1
50 | 863 | O=C(NCc1ccccc1Cl)C1CCN(C(=O)c2sccc2-n2cccc2)CC1
51 | 730 | NC(=O)Cn1c2ccccc2c2ncn(Cc3nc(-c4ccccc4)no3)c(=O)c21
52 | 991 | CC(C)(C)NC(=O)CSc1nc(-c2cccs2)cc(C(F)(F)F)c1C#N
53 | 964 | CCSc1nc2ccc(NS(=O)(=O)c3ccccc3F)cc2s1
54 | 1150 | COC(=O)c1ccc2c(=O)n(-c3ccc(C)c(F)c3)c(N3CCSC3)nc2c1
55 | 613 | Cc1cnc(C2CC2)n1CCNS(=O)(=O)c1ccccc1Cl
56 | 558 | Cc1cn(-c2ccc(SCC(=O)NCc3ccc4c(c3)OCO4)nn2)cn1
57 | 926 | CC(C)CC(NC(=O)OCc1ccccc1)C(=O)NC(Cc1c[nH]c2ccccc12)C(=O)O (centres undefined)
58 | 749 | CCn1cnc(S(=O)(=O)N2CCC(C(=O)NCc3ccc(OC(C)C)cc3)CC2)c1
59 | 960 | COCc1cnc2c(c1SCc1cccc(F)c1)c(=O)n(C)c(=O)n2C
60 | 889 | Cc1ccc2c(c1)N(Cc1ccc(F)cc1)N=C(C(=O)N1CCCC1)S2(=O)=O
61 | 798 | CCOC(=O)c1[nH]c(C)c(CCC(=O)N2CCC(C(=O)NCCC(C)C)CC2)c1C
62 | 809 | COc1cccc(NC(=O)C2c3cc(OC)c(OC)cc3C(=O)N3CCc4ccccc4C23)c1 (centres undefined)
63 | 1190 | Cc1ccc(-c2ccc(-n3nc(C)c(S(=O)(=O)N4CCCCC4)c3C)nn2)cc1
64 | 928 | CCCCOc1ccc2c(=O)c3ccc(O)cc3oc2c1
65 | 606 | O=C(Cc1noc2ccccc12)NCC1CCS(=O)(=O)C1 (centres undefined)
66 | 1130 | COc1ccc(N2CCN(S(=O)(=O)c3cc(-c4csc(C)n4)ccc3C)CC2)cc1

Row | RP-LC retention time [s] | Compound
67 | 1220 | Cc1ccc(-c2cc3c(=O)n(Cc4nc(-c5ccc(F)cc5)no4)ncn3n2)c(C)c1
68 | 689 | Cc1nn(-c2ccc(C(=O)N3CCOCC3)cc2)c2c1C(=O)CC(C)(C)C2
69 | 626 | CCc1ccc2[nH]c3c(c(=O)c2c1)CN(CC(=O)Nc1cccc(C#N)c1)CC3
70 | 925 | Cc1ccc(Cn2nc3c(S(=O)(=O)N4CCCCC4)cccn3c2=O)cc1
71 | 878 | Cc1cccc(N2CCN(C(=O)C3CCN(Cc4cn(C)c5ccc(Cl)cc45)CC3)CC2)c1C
72 | 1120 | Cc1sc(-c2noc(C3CC3)n2)cc1S(=O)(=O)N1CCC(C(=O)NC2CCC(C)CC2)CC1 (centres undefined)
73 | 702 | CSc1ccc(CNC(=O)C2CCN(c3cnc4nccnc4c3)CC2)cc1
74 | 1090 | O=C1COc2ccccc2N1Cc1nc(-c2ccc(F)c(Cl)c2)no1
75 | 1110 | Cc1sc(NC(=O)CCn2c(=O)sc3ccccc32)nc1-c1ccc(Cl)cc1
76 | 784 | CCN1C(=O)c2cccnc2Sc2cc(CNC(=O)c3ccc(OC)cc3OC)ccc21
77 | 798 | CC(=O)c1cccc(C(=O)NC2(c3nc(C)no3)CCCCC2)c1
78 | 577 | Cc1cc(C)c2c(N3CCCC3)nc(C(=O)NCc3ccc(C)o3)nc2n1
79 | 702 | CCn1ncc2ccc(C(=O)NC(C)C)cc21
80 | 613 | Cn1c(=O)c(C(=O)NC2CC2)nc2cccnc21
81 | 922 | CC1CCN(C(=O)C2CCN(S(C)(=O)=O)c3cc(Cl)ccc3O2)CC1 (centres undefined)
82 | 892 | COc1ccc(NC(=O)c2nnc(CCCC(=O)NCCc3c[nH]c4ccc(Cl)cc34)s2)cc1
83 | 943 | Cc1[nH]c(C(=O)Nc2cccc(Cl)c2)c(C)c1S(=O)(=O)N1CCCC1
84 | 1020 | CCC1CN(C(=O)Nc2cccc(C(=O)OC)c2)c2ccccc2O1 (centres undefined)
85 | 769 | O=C(Nc1cccc(-c2nnc3n2CCCC3)c1)c1nccc2ccccc12
86 | 1010 | Cc1cc(C)c(CNC(=O)c2nnc(-c3ccc(S(=O)(=O)N(C)C)cc3)o2)c(C)c1
87 | 610 | O=C(NC1CCN(Cc2ccccc2)CC1)c1cn2cc(Cl)ccc2n1

Row | Compound | RP-LC retention time [s]
88 | O=C1NC2C(=CC(O)C(O)C2O)c2cc3c(cc21)OCO3 (centres undefined) | 568
89 | N#Cc1ccc(Cl)cc1NC(=O)c1cccn(Cc2cccc(C(F)(F)F)c2)c1=O | 1090
